Measured values from patent US6280773A, “Optimally stabilized microgranule comprising 5-pyrrolyl-2-pyridylmethylsulfinylbenzimidazole derivative” (IL Yang Pharm. Co., Ltd., priority 1998, dated 2001).
Where two headings read alike, the source gives them in different places.

Columns and labels:
[1] = physchem; assay type: physicochemical; settings: for remaining at 360 h: solid, 75% relative humidity, read-out: Content of the Active Ingredient after 15 days
Method: . Then, the content of the active ingredient not decomposed was analyzed using a high performance liquid chromatography. The sample containing only the active ingredient without a stabilizer was used as a control.
<Conditions for High Performance Liquid Chromatography>
Column: μ-Bondapak C18 (4.6×250 mm) or the like
Detector: Absorption photometer in ultraviolet part (wavelength: 280 nm)
Mobile Phase: acetonitrile/phosphate buffer (pH 7.8)=45/55, v/v

[2] = Stability of the microgranule prepared in the presence of a binding agent; assay type: physicochemical; settings: microgranules of Table 3
Method: Microgranules were prepared according to the information represented in the following Table 3 using the stabilizers in a mole ratio of 1:1 with respect to the active ingredient (IY-81149) and using hydroxypropylmethylcellulose as a binding agent. A fluidized-bed granulator (SFC-MINI, FREUND. CO., LTD., Japan) by which the contact with the ambient moisture can be excluded and preparation and dryness of the granule can be simultaneously carried out in a short time was used. That is, the active ingredient and stabilizer were introduced into a chamber of the fluidized-bed granulator in the amounts shown in Table 3. Then, the binding agent-containing solution was sprayed under the influx air temperature (65° C.) of the chamber, during which the mixture of the active ingredient and stabilizer in the chamber was maintained at a temperature of 40° C. or less. The binding agent was used in an amount of 7% by weight with respect to the granule finally obtained, and the solvent water was used in an amount to dilute the binding agent by 15 times. Also, the total amount of the active ingredient and stabilizer to be introduced into the chamber was adjusted to 300 g. The average particle diameter of the microgranule prepared by appropriately controlling the spray rate and temperature was 0.8 mm.

Compound | stabilizing effect upon the active ingredient of the present invention [1] | Content of the Active Ingredient, initial ([1]; stabilizer not used (control)) [%] | Content of the Active Ingredient, initial ([1]; with Al(OH)3, mole ratio 1:1) [%] | Content of the Active Ingredient, initial ([1]; with Arginine, mole ratio 1:1) [%] | Content of the Active Ingredient, initial ([1]; with Histidine, mole ratio 1:1) [%] | Content of the Active Ingredient, initial ([1]; with K2 CO3, mole ratio 1:1) [%] | Content of the Active Ingredient, initial ([1]; with K2 HPO4, mole ratio 1:1) [%] | Content of the Active Ingredient, initial ([1]; with KHCO3, mole ratio 1:1) [%] | Content of the Active Ingredient, initial ([1]; with Lysine, mole ratio 1:1) [%] | Content of the Active Ingredient, initial ([1]; with Mg(OH)2, mole ratio 1:1) [%] | Content of the Active Ingredient, initial ([1]; with Na2 CO3, mole ratio 1:1) [%] | Content of the Active Ingredient, initial ([1]; with Na2 HPO4, mole ratio 1:1) [%] | Content of the Active Ingredient, initial ([1]; with NaHCO3, mole ratio 1:1) [%] | other results
[Mg+2].[OH-].[OH-] [Mg(OH)2, magnesium hydroxide] | superior stabilizing effect | – | – | – | – | – | – | – | – | – | – | – | – | stabilizing effect compared with the other stabilizers [2]: superior stabilizing effect
[OH][Al]([OH])[OH] [Al(OH)3, aluminum hydroxide] | much less stabilizing effect than magnesium hydroxide | – | – | – | – | – | – | – | – | – | – | – | – | –
NCCCC[C@H](N)C(=O)O [Lysine, lysine] | – | – | – | – | – | – | – | – | – | – | – | – | – | stabilizing effect upon the active ingredient of the present invention ([1]; compared with the other stabilizers (Examples 1 and 2)): much less stabilizing effect than magnesium hydroxide
COc1ccc2[nH]c([S+]([O-])Cc3ncc(C)c(OC)c3C)nc2c1 (centres unmarked) [Omeprazole, omeprazole, reference compound] | – | 99.3 | 99.6 | 99.1 | 99.7 | 100.0 | 99.4 | 99.9 | 99.2 | 100.2 | 100.1 | 99.8 | 99.7 | order of stabilizing effect of the tested stabilizers ([1]; mole ratio 1:1, 15 days, 40° C., relative humidity of 75%): Na2 HPO4 >NaHCO3 >Mg(OH)2 >arginine>Na2CO3 >K2 HPO4 >Al(OH)3 >histidine>K2 CO3 >lysine>KHCO3; remaining at 360 h ([1]; stabilizer not used (control), 40° C., relative humidity of 75%): 26.7%; remaining at 360 h ([1]; with Al(OH)3, mole ratio 1:1, 40° C., relative humidity of 75%): 67.6%; remaining at 360 h ([1]; with Arginine, mole ratio 1:1, 40° C., relative humidity of 75%): 76%; remaining at 360 h ([1]; with Histidine, mole ratio 1:1, 40° C., relative humidity of 75%): 67.1%; remaining at 360 h ([1]; with K2 CO3, mole ratio 1:1, 40° C., relative humidity of 75%): 63.9%; remaining at 360 h ([1]; with K2 HPO4, mole ratio 1:1, 40° C., relative humidity of 75%): 70.7%; remaining at 360 h ([1]; with KHCO3, mole ratio 1:1, 40° C., relative humidity of 75%): 59.4%; remaining at 360 h ([1]; with Lysine, mole ratio 1:1, 40° C., relative humidity of 75%): 60.3%; remaining at 360 h ([1]; with Mg(OH)2, mole ratio 1:1, 40° C., relative humidity of 75%): 86.1%; remaining at 360 h ([1]; with Na2 CO3, mole ratio 1:1, 40° C., relative humidity of 75%): 75.3%; remaining at 360 h ([1]; with Na2 HPO4, mole ratio 1:1, 40° C., relative humidity of 75%): 94%; remaining at 360 h ([1]; with NaHCO3, mole ratio 1:1, 40° C., relative humidity of 75%): 87.5%
COc1ccnc(C[S+]([O-])c2nc3cc(-n4cccc4)ccc3[nH]2)c1C (centres unmarked) [IY-81149] | – | 100.1 | 99.6 | 99.2 | 100.6 | 100.5 | 100.0 | 100.3 | 100.6 | 99.8 | 99.4 | 99.2 | 98.9 | –
